The NIST ThermoML archive (doi:10.1021/je0503204)
Numbers after ± are expanded uncertainties.

Conditions: Liquid; for speed of sound: Pulse-echo method

CCCCCCCl [1-chlorohexane]
Conditions | mass density, 293.15 K [kg/m3] | mass density, 313.15 K [kg/m3] | mass density, 333.15 K [kg/m3] | mass density, 353.15 K [kg/m3] | speed of sound, 293.15 K [m/s] | speed of sound, 313.15 K [m/s] | speed of sound, 333.15 K [m/s] | speed of sound, 353.15 K [m/s]
100 kPa | 878.5 ± 5.3 | 859.4 ± 5.2 | 840.3 ± 5 | 821.3 ± 4.9 | 1219.1 ± 4.9 | 1140.7 ± 4.6 | 1068.8 ± 4.3 | 995 ± 4
5000 kPa | 884.2 ± 5.3 | 865 ± 5.2 | 847.1 ± 5.1 | 828.1 ± 5 | 1240.5 ± 5 | 1166.4 ± 4.7 | 1097.1 ± 4.4 | 1026.2 ± 4.1
9910 kPa | 887 ± 5.3 | 869.8 ± 5.2 | 851.9 ± 5.1 | 833.7 ± 5 | 1264.5 ± 5.1 | 1191.8 ± 4.8 | 1124.4 ± 4.5 | 1055.4 ± 4.3
19720 kPa | 894.7 ± 5.4 | 878.3 ± 5.3 | 861.5 ± 5.2 | 844.5 ± 5.1 | 1310 ± 5.3 | 1240.1 ± 5 | 1176 ± 4.7 | 1110.7 ± 4.5
29530 kPa | 901.8 ± 5.4 | 886.2 ± 5.3 | 870.3 ± 5.2 | 854.3 ± 5.1 | 1352.6 ± 5.4 | 1285.3 ± 5.2 | 1224 ± 4.9 | 1162 ± 4.7
39340 kPa | 908.4 ± 5.5 | 893.4 ± 5.4 | 878.3 ± 5.3 | 863.1 ± 5.2 | 1392.6 ± 5.6 | 1327.6 ± 5.3 | 1268.8 ± 5.1 | 1209.8 ± 4.9
49150 kPa | 914.6 ± 5.5 | 900.1 ± 5.4 | 885.7 ± 5.3 | 871.2 ± 5.2 | 1430.1 ± 5.8 | 1367.4 ± 5.5 | 1310.8 ± 5.3 | 1254.5 ± 5.1
58960 kPa | 920.4 ± 5.5 | 906.4 ± 5.4 | 892.6 ± 5.4 | 878.7 ± 5.3 | 1465.7 ± 5.9 | 1405 ± 5.7 | 1350.4 ± 5.4 | 1296.3 ± 5.2
68770 kPa | 925.9 ± 5.6 | 912.3 ± 5.5 | 899 ± 5.4 | 885.6 ± 5.3 | 1499.3 ± 6 | 1440.6 ± 5.8 | 1387.7 ± 5.6 | 1335.8 ± 5.4
78580 kPa | 931.1 ± 5.6 | 917.9 ± 5.5 | 905 ± 5.4 | 892.1 ± 5.4 | 1531.5 ± 6.2 | 1474.6 ± 5.9 | 1423.2 ± 5.7 | 1373 ± 5.5
88390 kPa | 936 ± 5.6 | 923.1 ± 5.5 | 910.7 ± 5.5 | 898.2 ± 5.4 | 1562.3 ± 6.3 | 1507 ± 6.1 | 1457 ± 5.9 | 1408.3 ± 5.7
98200 kPa | 940.7 ± 5.6 | 928.1 ± 5.6 | 916 ± 5.5 | – | 1591.9 ± 6.4 | 1538 ± 6.2 | 1489.4 ± 6 | –
108000 kPa | 945.1 ± 5.7 | 932.8 ± 5.6 | 921.1 ± 5.5 | – | 1620.6 ± 6.5 | 1567.9 ± 6.3 | 1520.4 ± 6.1 | –
117800 kPa | 949.4 ± 5.7 | 937.3 ± 5.6 | 925.9 ± 5.6 | – | 1648.2 ± 6.6 | 1596.7 ± 6.4 | 1550.3 ± 6.2 | –
127600 kPa | 953.4 ± 5.7 | 941.6 ± 5.7 | 930.4 ± 5.6 | – | 1675.2 ± 6.7 | 1624.5 ± 6.5 | 1579.1 ± 6.4 | –
137400 kPa | 957.3 ± 5.7 | 945.7 ± 5.7 | 934.8 ± 5.6 | – | 1701.5 ± 6.8 | 1651.4 ± 6.6 | 1607 ± 6.5 | –
147200 kPa | 961.1 ± 5.8 | 949.7 ± 5.7 | 939 ± 5.6 | – | 1727.1 ± 7 | 1677.5 ± 6.8 | 1633.9 ± 6.6 | –
157100 kPa | 964.7 ± 5.8 | 953.5 ± 5.7 | 943 ± 5.7 | – | 1752.2 ± 7.1 | 1702.6 ± 6.9 | 1659.9 ± 6.7 | –
166900 kPa | 968.1 ± 5.8 | 957.1 ± 5.7 | 946.8 ± 5.7 | – | 1776.7 ± 7.1 | 1726.9 ± 6.9 | 1684.9 ± 6.8 | –
176700 kPa | 971.5 ± 5.8 | 960.6 ± 5.8 | 950.5 ± 5.7 | – | 1800.6 ± 7.2 | 1750.3 ± 7 | 1708.9 ± 6.9 | –
186500 kPa | 974.7 ± 5.8 | 964 ± 5.8 | 954 ± 5.7 | – | 1824 ± 7.3 | 1772.6 ± 7.1 | 1731.8 ± 7 | –
196300 kPa | 977.9 ± 5.9 | 967.2 ± 5.8 | 957.4 ± 5.7 | – | 1846.5 ± 7.4 | 1793.6 ± 7.2 | 1753.5 ± 7.1 | –
